Data reported in patent US10266489B2, “Pyrrolic amide compound and preparation method and application thereof” (HitGen LTD, priority 2014, dated 2019).

Tests used:
Huh7 cells = assay: Determination of cell growth inhibition, CCK-8, Huh-7; type: cell-based; conditions: Homo sapiens, Huh-7 hepatoma cells, 72 hours, highest measured IC50 of single or multiple operations
Excerpt: (§1) Test example 2 Cell determination-determination of cell growth inhibition Materials and reagents HepG2 cell strains, Hep3B cell strains, Huh7 cell strains and Li7 cell strains are purchased from Shanghai Institutes for Biological Sciences of Chinese Academy of Sciences; DMEM high glucose media and MEM media are purchased from Hyclone; fetal calf serum is purchased from Gibco Company; trypsin is purchased from Invitrogen Shanghai; CCK-8 kits are purchased from Beyotime Institute of Biotechnology; and other consumables such as cell-culture dishes and the like are purchased from Corning China. […]
(§2) comprising the steps: digesting HepG2 cells, Hep3B Huh7 cells and Li7 cells in logarithmic phases by using the trypsin; after counting the cells by taking uniform cell suspension, adjusting cell density to 1500 cells/pore by using a culture medium containing 10% of serum, and re-inoculating into a 96-pore cell culture plate, wherein the culture volume is 200 μL; incubating in a 5% CO2 incubator at a temperature of 37° C.; and culturing for 24 hours for experiments. […]
(§3) comprising the steps: taking the cells cultured for 24 hours from the incubator, sucking culture solution in the pore plate, adding 200 μL of compound solution prepared by using a culture medium containing 10% of the fetal calf serum into each pore, enabling five pores of each concentration to be parallel, setting DMSO at negative control, and incubating in the 5% CO2 incubator at a temperature of 37° C. for 72 hours for performing CCK-8 detection. […]
(§4) comprising the steps: taking a serum-free medium and a CCK-8 solution, and preparing a CCK-8 working solution according to a ratio of 10:1 (the process needs to be protected from light); taking the cells cultured for 72 hours from the incubator, sucking culture solution in the pore plate, adding 120 μL of the CCK-8 working solution into each pore, adding 120 μL of the CCK-8 working solution into a cell-free pore plate to serve as blank control, and incubating in the 5% CO2 incubator at a temperature of 37° C. for one hour (the process needs to be protected from light ); and […]
(§5) taking the pore plate from the incubator, sucking 100 μL of solution from each pore into a new 96-pore plate, and reading absorbancy at 450 nm (the process needs to he protected from light).
(§6) Tx: absorbancy measured in CCK-8 within 72 hours after compound effect
(§7) C: absorbancy measured m CCK-8 within 72 hours after culturing in negative control pores B: absorbancy measured CCK-8 in blank control pores
(§8) The compounds 1-19 prepared in the embodiments are operated in the above determination, and test results are shown in Table 3, wherein the highest measured IC50 values of the various compounds during single or multiple operations are classified as specified, as shown in Table 3: […]

Li7 cells = assay: Determination of cell growth inhibition, CCK-8, Li-7; type: cell-based; conditions: Li-7 hepatoma cells, 72 hours, highest measured IC50 of single or multiple operations
Excerpt: as §1, §2, §3, §4, §5, §6, §7, §8

Hep3B cells = assay: Determination of cell growth inhibition, CCK-8, Hep3B; type: cell-based; conditions: Homo sapiens, Hep3B hepatoma cells, 72 hours, highest measured IC50 of single or multiple operations
Excerpt: as §1, §2, §3, §4, §5, §6, §7, §8

HepG2 cells = assay: Determination of cell growth inhibition, CCK-8, HepG2; type: cell-based; conditions: Homo sapiens, HepG2 hepatoma cells, 72 hours, highest measured IC50 of single or multiple operations
Excerpt: as §1, §2, §3, §4, §5, §6, §7, §8

[1] = biological target: T1, histone deacetylase 6 (HDAC6) (Homo sapiens, UniProt Q9UBN7); assay: Detection of enzyme viability of histone deacetylase 6 (fluorogenic substrate deacetylation); type: biochemical; conditions: 0.35 ng/μL HDAC 6, 20 μM substrate, 37° C.
T1 construct: purchased BPS Bioscience 50076
T1 sequence (Q9UBN7 1-1215): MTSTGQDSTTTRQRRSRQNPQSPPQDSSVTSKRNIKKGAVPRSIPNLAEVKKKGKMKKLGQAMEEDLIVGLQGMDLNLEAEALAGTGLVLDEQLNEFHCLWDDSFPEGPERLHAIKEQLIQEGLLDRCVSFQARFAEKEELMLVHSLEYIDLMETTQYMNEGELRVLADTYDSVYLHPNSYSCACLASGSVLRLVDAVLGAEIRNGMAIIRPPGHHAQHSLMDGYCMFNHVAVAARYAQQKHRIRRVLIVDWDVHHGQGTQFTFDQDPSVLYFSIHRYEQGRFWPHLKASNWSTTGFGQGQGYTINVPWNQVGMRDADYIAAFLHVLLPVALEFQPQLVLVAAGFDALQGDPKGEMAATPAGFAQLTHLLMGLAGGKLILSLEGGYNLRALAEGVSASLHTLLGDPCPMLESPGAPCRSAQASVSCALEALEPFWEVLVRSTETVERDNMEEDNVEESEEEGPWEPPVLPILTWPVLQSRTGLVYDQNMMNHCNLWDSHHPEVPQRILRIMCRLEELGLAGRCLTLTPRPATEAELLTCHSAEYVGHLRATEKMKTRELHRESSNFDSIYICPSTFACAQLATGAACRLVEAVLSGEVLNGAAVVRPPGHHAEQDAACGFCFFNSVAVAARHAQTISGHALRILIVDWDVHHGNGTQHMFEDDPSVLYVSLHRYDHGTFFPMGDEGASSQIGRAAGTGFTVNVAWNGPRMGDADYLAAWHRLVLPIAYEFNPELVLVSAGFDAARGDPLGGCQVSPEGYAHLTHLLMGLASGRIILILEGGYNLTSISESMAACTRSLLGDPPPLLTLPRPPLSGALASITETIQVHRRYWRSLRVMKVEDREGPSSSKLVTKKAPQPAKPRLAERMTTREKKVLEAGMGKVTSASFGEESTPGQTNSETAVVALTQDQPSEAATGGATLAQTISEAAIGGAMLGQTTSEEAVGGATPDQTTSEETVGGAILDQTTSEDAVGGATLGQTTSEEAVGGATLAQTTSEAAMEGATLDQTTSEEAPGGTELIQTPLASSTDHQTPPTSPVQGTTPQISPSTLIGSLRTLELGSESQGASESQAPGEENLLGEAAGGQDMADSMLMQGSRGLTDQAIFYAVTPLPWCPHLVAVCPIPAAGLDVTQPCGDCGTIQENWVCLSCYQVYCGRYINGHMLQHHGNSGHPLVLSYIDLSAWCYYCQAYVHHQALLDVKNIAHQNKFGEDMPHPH
Excerpt: HDAC inhibitory viabilities of the compounds in the present invention are detected in detection of substrate deacetylation.
A: Detection of enzyme viability of histone deacetylase 6 (#50076, BPS Bioscience):
Acetyl of HDAC 6 on a substrate is removed, so that the substrate is activated and can be affected by a subsequently added developing solution, and fluorophore is released. The size of a fluorescence signal reflects the viability of the HDAC 6. An IC50 detection method of the enzyme is disclosed in Chuping Xu, Elisabetta Soragni improved Histone Deacetylase Inhibitors as Therapeutics for the Neurdegenerative DiseaseEriedreich's Ataxia: A New Synthetic Route. A total reaction system (100 μL/well) contains 0.35 ng/μL of HDAC 6, 20 μM of substrate and compounds of different concentrations. The fluorescence signal is measured within 30 minutes after incubation at a temperature of 37° C., inhibitory effects of the compounds are determined from the obtained data and mapped with the compound concentrations to obtain a concentration response curve, and the IC50 value is fitted according to a four-parameter model.
The compounds 1-19 prepared in the embodiments are subjected to detection of enzyme viability of histone deacetylase 6 (i.e., HDAC6) according to the method above. Test results are shown in Table 2, wherein the measured IC50 values of the compounds are classified as specified, as shown in Table 2: […]

SMILES | IC50 (Huh7 cells) | IC50 (Hep3B cells) | IC50 (HepG2 cells) | IC50 (Li7 cells) | IC50 [1]
N#Cc1ccc(S(=O)(=O)N2CC=C(C(=O)NO)C2)cc1 [Compound 1, N-hydroxy-1-((4-benzene-cyano)sulfonyl) 2,5-dihydro-1H-pyrrole-3-formamide] | > 10 µM | > 10 µM | > 10 µM | > 10 µM | 100 to 300 nM
O=C(NO)C1=CCN(S(=O)(=O)c2ccc(C(=O)O)cc2)C1 [Compound 7] | > 10 µM | > 10 µM | > 10 µM | > 10 µM | < 100 nM
CNC(=O)c1ccc(S(=O)(=O)N2CC=C(C(=O)NO)C2)cc1 [Compound 9, N-hydroxy-1-((4-(methylaminecarbonyl)phenyl)sulfonyl) 2,5-dihydro-1H-pyrrole-3-formamide] | > 10 µM | > 10 µM | > 10 µM | > 10 µM | < 100 nM
CC(=O)Nc1ccc(S(=O)(=O)N2CC=C(C(=O)NO)C2)cc1 [Compound 10, N-hydroxy-1-((4-acetamido-phenyl)sulfonyl) 2,5-dihydro-1H-pyrrole-3-formamide] | > 10 µM | > 10 µM | > 10 µM | > 10 µM | < 100 nM
O=C(NO)C1=CCN(S(=O)(=O)c2ccc(F)cc2)C1 [Compound 11, N-hydroxy-1-((4-fluoro-phenyl)sulfonyl) 2,5-dihydro-1H-pyrrole-3-formamide] | > 10 µM | > 10 µM | > 10 µM | > 10 µM | < 100 nM
O=C(NO)C1=CCN(S(=O)(=O)c2cccc(F)c2)C1 [Compound 12, N-hydroxy-1-((3-fluoro-phenyl)sulfonyl) 2,5-dihydro-1H-pyrrole-3-formamide] | > 10 µM | > 10 µM | < 10 µM | > 10 µM | < 100 nM
COc1ccc(S(=O)(=O)N2CC=C(C(=O)NO)C2)cc1 [Compound 13, N-hydroxy-1-((4-methoxy-phenyl)sulfonyl) 2,5-dihydro-1H-pyrrole-3-formamide] | > 10 µM | < 10 µM | < 10 µM | < 10 µM | < 100 nM
O=C(NO)C1=CCN(S(=O)(=O)c2ccc(C3=CCNCC3)cc2)C1 [Compound 18, N-hydroxy-1-((4-(1,2,3,6-tetrahydro-pyridine-4-yl)phenyl)sulfonyl) 2,5-dihydro-1H-pyrrole-3-formamide] | > 10 µM | > 10 µM | > 10 µM | > 10 µM | 100 to 300 nM

The next lines start with results.

IC50 (Huh7 cells) | IC50 (Hep3B cells) | IC50 (HepG2 cells) | SMILES | IC50 (Li7 cells) | IC50 [1]
> 10 µM | < 10 µM | < 10 µM | COc1cccc(S(=O)(=O)N2CC=C(C(=O)NO)C2)c1 [Compound 14, N-hydroxy-1-((3-methoxy-phenyl)sulfonyl) 2,5-dihydro-1H-pyrrole-3-formamide] | < 10 µM | < 100 nM
> 10 µM | < 10 µM | < 10 µM | Cc1ccc(S(=O)(=O)N2CC=C(C(=O)NO)C2)cc1 [Compound 15, N-hydroxy-1-((4-methylphenyl)sulfonyl)2,5-dihydro-1H-pyrrole-3-formamide] | < 10 µM | < 100 nM
> 10 µM | > 10 µM | < 10 µM | Cc1cccc(S(=O)(=O)N2CC=C(C(=O)NO)C2)c1 [Compound 16, N-hydroxy-1-((3-methylphenyl)sulfonyl)2,5-dihydro-1H-pyrrole-3-formamide] | > 10 µM | < 100 nM
> 10 µM | > 10 µM | > 10 µM | COc1ccc(S(=O)(=O)N2CC=C(C(=O)NO)C2)cc1OC [Compound 17, N-hydroxy-1-((3,4-dimethoxyphenyl)sulfonyl) 2,5-dihydro-1H-pyrrole-3-formamide] | > 10 µM | 100 to 300 nM
> 10 µM | > 10 µM | > 10 µM | Nc1ccccc1NC(=O)C1=CCN(S(=O)(=O)c2ccccc2)C1 [Compound 19, N-(2-aminophenyl)-1-(benzenesulfonyl)-2,5-dihydro-1H-pyrrole-3-formamide] | > 10 µM | > 500 nM
